# ChEMBL document CHEMBL1201862, “PubChem BioAssay data set” (2004)
# Activity calls are given as the source filed them.
# Experiments:
# [1] = target: Serine/threonine-protein phosphatase PP1-alpha catalytic subunit (Homo sapiens, UniProt P62136); assay: inhibition of protein phosphatase 1 activity – biochemical, fluorescence, dose response (AID 2403);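 note: phosphatase turnover of OMFP into fluorescent 3-O-methylfluorescein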
# [2] = target: Serine/threonine-protein phosphatase (Homo sapiens, UniProt Q9BPW0); assay: Counterscreen for inhibitors of PP1: fluorescence-based biochemical high throughput dose response assay to identify inhibitors of Protein Phosphatase 5 (PP5). [Related pubchem assays: 2034 (Summary (PP5 inhibitors)), 1987 (PP5 inhibitors in singlate), 2235 (PP1 inhibitors in singlate)]
# [3] = target: T1, Leucine aminopeptidase (Plasmodium falciparum 3D7, UniProt Q8IL11); assay: P. falciparum M17LAP inhibitors, primary screen, biochemical, fluorogenic H-Leu-NHMec substrate, 1536-well (AID 1619); format: functional
# T1 sequence (Q8IL11 whole entry): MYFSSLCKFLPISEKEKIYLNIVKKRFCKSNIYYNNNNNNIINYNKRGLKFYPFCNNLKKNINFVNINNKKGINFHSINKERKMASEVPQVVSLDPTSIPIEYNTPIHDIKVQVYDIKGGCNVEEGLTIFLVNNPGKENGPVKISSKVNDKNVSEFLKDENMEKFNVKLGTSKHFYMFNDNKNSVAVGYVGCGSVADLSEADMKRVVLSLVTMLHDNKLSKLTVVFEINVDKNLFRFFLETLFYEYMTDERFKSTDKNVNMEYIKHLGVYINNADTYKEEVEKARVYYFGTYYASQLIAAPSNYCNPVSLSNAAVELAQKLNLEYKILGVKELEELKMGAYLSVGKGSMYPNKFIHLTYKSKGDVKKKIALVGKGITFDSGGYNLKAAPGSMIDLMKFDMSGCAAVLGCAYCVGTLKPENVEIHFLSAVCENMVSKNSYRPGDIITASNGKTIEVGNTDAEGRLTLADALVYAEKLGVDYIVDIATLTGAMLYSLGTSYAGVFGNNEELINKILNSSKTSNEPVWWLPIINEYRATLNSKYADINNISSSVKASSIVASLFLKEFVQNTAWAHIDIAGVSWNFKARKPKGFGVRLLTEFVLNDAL
# [4] = target: T2, RNA-binding protein pos-1 (Caenorhabditis elegans, UniProt G5EF15); assay: disruptors of C. elegans POS-1 RNA interaction – biochemical, fluorescence polarization, dose response (AID 1964);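 note: purified POS-1 fused to maltose binding protein made in E. coli; potency of compounds blocking POS-1 binding to fluorescent RNA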
# T2 sequence (G5EF15 whole entry): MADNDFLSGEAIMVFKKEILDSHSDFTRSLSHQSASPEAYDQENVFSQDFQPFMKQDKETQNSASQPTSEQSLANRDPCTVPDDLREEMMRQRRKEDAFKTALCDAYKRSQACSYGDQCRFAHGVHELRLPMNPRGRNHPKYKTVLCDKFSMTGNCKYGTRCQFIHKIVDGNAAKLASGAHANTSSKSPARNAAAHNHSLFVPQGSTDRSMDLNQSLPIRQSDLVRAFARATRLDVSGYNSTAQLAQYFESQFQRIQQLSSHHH
# [5] = target: Aspartyl aminopeptidase (Plasmodium falciparum 3D7, UniProt Q8I2J3)
# [6] = target: Procathepsin L (Homo sapiens, UniProt P07711)
# [7] = target: T3, Zinc finger protein mex-5 (Caenorhabditis elegans, UniProt Q9XUB2); assay: potency of MEX-5 RNA-binding blockers – biochemical, C. elegans, fluorescence polarization, dose response (AID 1960)
# T3 sequence (Q9XUB2 whole entry): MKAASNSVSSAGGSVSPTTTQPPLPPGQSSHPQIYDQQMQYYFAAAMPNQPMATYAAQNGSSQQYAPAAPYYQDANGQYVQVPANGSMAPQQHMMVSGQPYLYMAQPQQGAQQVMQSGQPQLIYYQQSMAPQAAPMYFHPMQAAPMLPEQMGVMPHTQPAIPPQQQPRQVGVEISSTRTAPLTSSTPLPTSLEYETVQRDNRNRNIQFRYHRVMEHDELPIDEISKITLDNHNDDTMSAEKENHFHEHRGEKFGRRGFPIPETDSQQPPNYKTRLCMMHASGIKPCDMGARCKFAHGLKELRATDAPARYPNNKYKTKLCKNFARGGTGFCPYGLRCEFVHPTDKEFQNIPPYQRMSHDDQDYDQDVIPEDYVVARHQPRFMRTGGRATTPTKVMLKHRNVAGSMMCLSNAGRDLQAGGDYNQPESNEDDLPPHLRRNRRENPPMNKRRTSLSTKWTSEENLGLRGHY
# [8] = target: Large T antigen (Simian virus 40, UniProt P03070); format: functional, Betapolyomavirus macacae;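 note: Confirmatory-stage PubChem screen for compounds that inhibit SV40 T antigen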
# [9] = target: T4, Estrogen receptor beta (Homo sapiens, UniProt Q92731);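 note: recombinant ER-beta bound to coactivator SRC1 peptide in presence of estradiol agonist; inhibitors block coactivator peptide binding and lower the FRET signal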
# [10] = target: T4, Estrogen receptor beta; assay: blockers of SRC-3 recruitment to ERβ – biochemical, ELISA, streptavidin-HRP readout, orthogonal assay, confirmation (AID 1060)
# [11] = target: T5, Cytochrome P450 2D6 (Homo sapiens, UniProt P10635); assay: qHTS Assay for Inhibitors and Substrates of Cytochrome P450 2D6. [Related pubchem assays: 410 ]; format: ADME; settings: read-out: Potency
# [12] = target: Cytochrome P450 3A4 (Homo sapiens, UniProt P08684); settings: Potency;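 note: confirmatory qHTS run detecting inhibitors and substrates of CYP3A4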
# [13] = target: T6, Cytochrome P450 2C9 (Homo sapiens, UniProt P11712); settings: Potency
# [14] = target: T7, Cytochrome P450 1A2 (Homo sapiens, UniProt P05177);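 note: PubChem cytochrome P450 panel assay, CYP1A2 panel member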
# T7 sequence (P05177 whole entry): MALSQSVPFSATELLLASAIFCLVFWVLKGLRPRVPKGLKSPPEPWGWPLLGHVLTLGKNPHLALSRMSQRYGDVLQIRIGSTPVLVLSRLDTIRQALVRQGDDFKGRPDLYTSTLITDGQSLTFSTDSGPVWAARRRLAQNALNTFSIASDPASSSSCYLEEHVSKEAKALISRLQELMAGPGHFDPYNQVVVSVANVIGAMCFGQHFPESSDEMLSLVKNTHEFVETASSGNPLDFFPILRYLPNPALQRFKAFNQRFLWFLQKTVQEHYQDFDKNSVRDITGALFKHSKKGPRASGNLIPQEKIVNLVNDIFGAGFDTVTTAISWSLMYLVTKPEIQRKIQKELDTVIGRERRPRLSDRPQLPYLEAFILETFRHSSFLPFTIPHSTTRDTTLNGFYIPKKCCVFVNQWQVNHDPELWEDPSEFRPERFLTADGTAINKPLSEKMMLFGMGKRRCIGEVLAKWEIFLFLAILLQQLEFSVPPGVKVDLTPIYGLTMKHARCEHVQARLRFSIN
# [15] = target: T6, Cytochrome P450 2C9
# [16] = test system: HEK293; assay: Fluorescence-based counterscreen for potentiators or agonists of NPY-Y2: cell-based high-throughput dose response assay to identify inhibitors of cyclic nucleotide gated ion channel (CNGC) activity. In this assay, the parental HEK293 cell line transfected with a cyclic-nucleotide gated ion channel (CNGC)-based cAMP sensor is used to measure inhibition of isoproterenol-induced CNGC activity by test compound.; format: functional; settings: Homo sapiens
# [17] = target: T8, Neuropeptide Y receptor type 2 (Homo sapiens, UniProt P49146); assay: Fluorescence-based cell-based high-throughput dose response assay for agonists of NPY-Y2. [Related pubchem assays: 1703 (Screening assay (CNGC inhibitors).), 1359 (Screening assay (NPY-Y2 potentiators or agonists).), 1304 (Screening assay (NPY-Y1 potentiators or agonists).), 1710 (Screening assay (NPY-Y2 agonists).), 1791 (Summary AID.)]; format: functional
# T8 sequence (P49146 whole entry): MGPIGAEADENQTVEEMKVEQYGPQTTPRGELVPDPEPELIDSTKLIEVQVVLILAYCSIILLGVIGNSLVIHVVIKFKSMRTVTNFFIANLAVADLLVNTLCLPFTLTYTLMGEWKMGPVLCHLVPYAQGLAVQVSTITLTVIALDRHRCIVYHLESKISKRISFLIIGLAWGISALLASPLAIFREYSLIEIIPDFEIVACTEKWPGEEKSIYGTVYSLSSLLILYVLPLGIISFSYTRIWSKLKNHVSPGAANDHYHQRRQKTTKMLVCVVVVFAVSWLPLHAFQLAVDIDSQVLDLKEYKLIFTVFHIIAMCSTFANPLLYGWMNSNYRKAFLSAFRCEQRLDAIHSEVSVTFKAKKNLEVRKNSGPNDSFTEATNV
# [18] = target: T9, Neuropeptide Y receptor type 1 (Homo sapiens, UniProt P25929); assay: Fluorescence-based counterscreen for agonists of NPY-Y2: cell-based high-throughput dose response assay for agonists of NPY-Y1.; format: functional
# T9 sequence (P25929 whole entry): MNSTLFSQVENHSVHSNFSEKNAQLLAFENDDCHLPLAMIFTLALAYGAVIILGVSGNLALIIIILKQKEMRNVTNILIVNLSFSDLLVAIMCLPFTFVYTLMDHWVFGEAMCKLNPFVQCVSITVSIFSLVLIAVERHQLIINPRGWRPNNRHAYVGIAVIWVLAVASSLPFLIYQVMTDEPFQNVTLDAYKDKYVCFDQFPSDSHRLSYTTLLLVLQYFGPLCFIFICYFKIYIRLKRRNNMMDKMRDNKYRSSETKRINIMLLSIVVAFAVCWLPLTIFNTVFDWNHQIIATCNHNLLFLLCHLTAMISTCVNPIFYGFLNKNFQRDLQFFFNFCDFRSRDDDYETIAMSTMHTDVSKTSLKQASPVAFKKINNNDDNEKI
# [19] = target: T5, Cytochrome P450 2D6
# [20] = target: T10, Neuropeptides B/W receptor type 1 (Homo sapiens, UniProt P48145); assay: Fluorescence-based dose response cell-based high throughput screening assay to identify antagonists of the G-protein coupled receptor 7 (GPR7). [Related pubchem assays: 1952 (Screening assay (GPR7 antagonists).), 1880 (Summary AID.)]; format: functional
# T10 sequence (P48145 whole entry): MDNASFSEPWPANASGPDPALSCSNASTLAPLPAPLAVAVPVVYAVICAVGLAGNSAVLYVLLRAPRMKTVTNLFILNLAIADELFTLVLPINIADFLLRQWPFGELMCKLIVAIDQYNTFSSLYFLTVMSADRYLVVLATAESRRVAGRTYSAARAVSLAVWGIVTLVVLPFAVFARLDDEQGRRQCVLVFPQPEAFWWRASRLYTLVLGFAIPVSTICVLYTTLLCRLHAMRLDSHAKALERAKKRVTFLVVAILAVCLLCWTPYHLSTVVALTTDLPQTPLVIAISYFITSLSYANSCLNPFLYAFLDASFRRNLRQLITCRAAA
# [21] = target: Melanin-concentrating hormone receptor 1 (Homo sapiens, UniProt Q99705); assay: Fluorescence-based counterscreen for antagonists of the G-protein coupled receptor 7 (GPR7): cell-based high throughput dose response assay to identify antagonists of the melanin-concentrating hormone receptor 1 (MCHR1).; format: functional
# [22] = target: Voltage-dependent T-type calcium channel subunit alpha-1H (Homo sapiens, UniProt O95180); format: functional;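 note: channel activity triggered by adding a high calcium stimulation buffer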
# [23] = target: T8, Neuropeptide Y receptor type 2; assay: Fluorescence-based counterscreen for agonists of NPY-Y1: cell-based high-throughput dose response assay for agonists of NPY-Y2.; format: functional
# [24] = test system: HEK293; assay: Fluorescence-based counterscreen for potentiators or agonists of NPY-Y1: cell-based high-throughput dose response assay for inhibitors of cyclic nucleotide gated ion channel (CNGC) activity. In this assay, the parental HEK293 cell line transfected with a cyclic-nucleotide gated ion channel (CNGC)-based cAMP sensor is used to measure inhibition of isoproterenol-induced CNGC …; format: functional; settings: Homo sapiens
# [25] = target: T9, Neuropeptide Y receptor type 1; assay: Fluorescence-based dose response cell-based high-throughput screening assay for agonists of NPY-Y1. [Related pubchem assays: 1697 (Screening assay (NPY-Y1 agonists).), 1359 (Screening assay (NPY-Y2 potentiators or agonists).), 1304 (Screening assay (NPY-Y1 potentiators or agonists).), 1704 (Screening assay (CNGC inhibitors).), 1791 (Summary AID.)]; format: functional
# [26] = test system: Vero; assay: host cell viability loss, Vero E6 – synthesized analogs, cytotoxicity control for West Nile virus antiviral project, SAR follow-up (AID 2244); format: functional; settings: Chlorocebus sabaeus
# T6 sequence (P11712 whole entry): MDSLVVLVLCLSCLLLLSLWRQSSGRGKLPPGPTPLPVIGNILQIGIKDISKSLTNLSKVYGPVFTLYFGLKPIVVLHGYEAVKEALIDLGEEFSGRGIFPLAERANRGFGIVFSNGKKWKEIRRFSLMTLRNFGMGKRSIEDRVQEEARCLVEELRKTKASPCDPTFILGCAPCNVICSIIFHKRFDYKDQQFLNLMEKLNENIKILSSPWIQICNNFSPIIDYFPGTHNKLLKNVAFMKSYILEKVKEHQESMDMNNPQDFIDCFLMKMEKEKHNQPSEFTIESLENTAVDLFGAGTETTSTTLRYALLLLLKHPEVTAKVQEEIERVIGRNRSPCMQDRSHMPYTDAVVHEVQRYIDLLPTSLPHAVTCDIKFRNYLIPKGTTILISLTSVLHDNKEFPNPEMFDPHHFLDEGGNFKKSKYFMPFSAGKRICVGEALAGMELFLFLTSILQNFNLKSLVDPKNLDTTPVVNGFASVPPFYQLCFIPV
# T5 sequence (P10635 whole entry): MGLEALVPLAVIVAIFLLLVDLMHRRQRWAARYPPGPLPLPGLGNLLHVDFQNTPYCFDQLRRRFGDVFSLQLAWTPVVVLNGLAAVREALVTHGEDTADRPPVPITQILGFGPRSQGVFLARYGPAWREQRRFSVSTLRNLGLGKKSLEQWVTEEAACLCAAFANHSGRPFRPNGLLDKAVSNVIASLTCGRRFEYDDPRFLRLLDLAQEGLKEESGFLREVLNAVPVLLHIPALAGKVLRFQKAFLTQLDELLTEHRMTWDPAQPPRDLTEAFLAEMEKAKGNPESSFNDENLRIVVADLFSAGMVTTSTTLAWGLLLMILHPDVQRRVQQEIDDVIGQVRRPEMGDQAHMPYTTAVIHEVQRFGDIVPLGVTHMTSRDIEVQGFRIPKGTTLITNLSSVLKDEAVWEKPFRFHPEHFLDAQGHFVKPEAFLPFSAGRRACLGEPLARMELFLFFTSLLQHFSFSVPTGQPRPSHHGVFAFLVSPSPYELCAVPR
# T4 sequence (Q92731 whole entry): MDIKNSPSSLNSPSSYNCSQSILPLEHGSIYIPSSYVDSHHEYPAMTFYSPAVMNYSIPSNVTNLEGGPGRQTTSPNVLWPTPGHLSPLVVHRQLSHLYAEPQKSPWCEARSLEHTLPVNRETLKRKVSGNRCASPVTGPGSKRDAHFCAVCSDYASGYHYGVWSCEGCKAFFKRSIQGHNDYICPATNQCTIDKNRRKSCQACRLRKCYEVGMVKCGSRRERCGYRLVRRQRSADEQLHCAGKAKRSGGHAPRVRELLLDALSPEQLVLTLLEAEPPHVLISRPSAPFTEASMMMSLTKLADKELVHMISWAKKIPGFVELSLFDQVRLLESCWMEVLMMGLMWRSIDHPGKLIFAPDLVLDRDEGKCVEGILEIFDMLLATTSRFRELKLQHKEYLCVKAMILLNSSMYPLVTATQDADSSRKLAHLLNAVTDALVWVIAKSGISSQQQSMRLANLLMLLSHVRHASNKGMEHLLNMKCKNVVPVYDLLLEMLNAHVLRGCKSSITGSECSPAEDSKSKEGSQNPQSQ
# Sequence of Aspartyl aminopeptidase (Q8I2J3 whole entry): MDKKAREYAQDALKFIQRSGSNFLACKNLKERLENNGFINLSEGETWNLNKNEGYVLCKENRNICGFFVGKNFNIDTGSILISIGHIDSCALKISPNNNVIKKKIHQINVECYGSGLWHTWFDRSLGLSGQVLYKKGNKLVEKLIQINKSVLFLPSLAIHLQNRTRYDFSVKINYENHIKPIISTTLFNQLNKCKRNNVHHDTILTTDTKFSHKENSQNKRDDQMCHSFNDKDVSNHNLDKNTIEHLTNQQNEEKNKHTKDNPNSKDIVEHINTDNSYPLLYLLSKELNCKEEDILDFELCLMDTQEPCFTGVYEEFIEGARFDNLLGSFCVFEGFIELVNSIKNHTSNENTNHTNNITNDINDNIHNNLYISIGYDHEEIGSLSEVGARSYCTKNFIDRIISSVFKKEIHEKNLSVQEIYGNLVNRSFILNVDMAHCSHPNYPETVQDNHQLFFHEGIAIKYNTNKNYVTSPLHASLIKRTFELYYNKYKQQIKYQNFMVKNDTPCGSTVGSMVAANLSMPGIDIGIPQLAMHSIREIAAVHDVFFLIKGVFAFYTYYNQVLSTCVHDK
# Sequence of Serine/threonine-protein phosphatase (Q9BPW0 whole entry): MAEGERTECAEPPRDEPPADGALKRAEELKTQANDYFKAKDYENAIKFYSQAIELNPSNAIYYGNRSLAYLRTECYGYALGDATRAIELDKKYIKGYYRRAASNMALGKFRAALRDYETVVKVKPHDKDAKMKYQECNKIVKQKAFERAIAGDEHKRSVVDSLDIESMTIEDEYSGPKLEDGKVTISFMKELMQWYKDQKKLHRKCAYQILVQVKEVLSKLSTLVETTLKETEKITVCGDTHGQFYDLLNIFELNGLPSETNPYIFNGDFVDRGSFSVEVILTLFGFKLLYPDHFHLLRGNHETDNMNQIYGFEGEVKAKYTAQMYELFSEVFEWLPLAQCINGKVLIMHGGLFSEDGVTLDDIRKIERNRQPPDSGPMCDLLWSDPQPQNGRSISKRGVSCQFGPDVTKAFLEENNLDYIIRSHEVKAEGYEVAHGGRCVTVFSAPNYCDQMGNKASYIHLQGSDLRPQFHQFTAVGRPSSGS
# Sequence of Melanin-concentrating hormone receptor 1 (Q99705 whole entry): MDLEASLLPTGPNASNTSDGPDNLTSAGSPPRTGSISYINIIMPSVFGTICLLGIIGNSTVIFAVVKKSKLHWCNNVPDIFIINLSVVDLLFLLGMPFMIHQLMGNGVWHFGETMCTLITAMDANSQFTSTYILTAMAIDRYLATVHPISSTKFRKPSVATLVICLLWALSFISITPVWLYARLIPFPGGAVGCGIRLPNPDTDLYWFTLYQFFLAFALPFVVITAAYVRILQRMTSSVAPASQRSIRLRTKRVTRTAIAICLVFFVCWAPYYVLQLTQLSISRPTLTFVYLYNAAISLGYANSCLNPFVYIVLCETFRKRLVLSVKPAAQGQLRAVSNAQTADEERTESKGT
# Sequence of Serine/threonine-protein phosphatase PP1-alpha catalytic subunit (P62136 whole entry): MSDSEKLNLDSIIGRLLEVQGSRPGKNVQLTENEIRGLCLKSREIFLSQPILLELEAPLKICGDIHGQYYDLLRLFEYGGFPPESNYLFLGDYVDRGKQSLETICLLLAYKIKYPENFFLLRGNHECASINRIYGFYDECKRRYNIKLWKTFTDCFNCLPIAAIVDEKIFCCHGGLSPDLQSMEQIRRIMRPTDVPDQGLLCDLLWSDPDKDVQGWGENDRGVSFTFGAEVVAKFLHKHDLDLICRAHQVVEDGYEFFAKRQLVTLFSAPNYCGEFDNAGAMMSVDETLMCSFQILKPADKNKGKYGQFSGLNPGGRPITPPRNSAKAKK
# Sequence of Procathepsin L (P07711 whole entry): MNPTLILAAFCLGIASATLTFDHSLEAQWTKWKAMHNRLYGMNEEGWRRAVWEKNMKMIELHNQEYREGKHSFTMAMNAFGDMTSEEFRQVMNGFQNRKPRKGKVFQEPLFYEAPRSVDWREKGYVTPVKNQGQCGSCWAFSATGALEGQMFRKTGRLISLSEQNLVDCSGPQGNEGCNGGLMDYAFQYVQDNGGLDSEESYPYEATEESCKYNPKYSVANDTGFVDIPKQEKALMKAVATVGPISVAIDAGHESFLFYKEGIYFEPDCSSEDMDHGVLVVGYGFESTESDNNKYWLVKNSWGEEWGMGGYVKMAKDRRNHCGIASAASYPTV
# Sequence of Large T antigen (P03070 whole entry): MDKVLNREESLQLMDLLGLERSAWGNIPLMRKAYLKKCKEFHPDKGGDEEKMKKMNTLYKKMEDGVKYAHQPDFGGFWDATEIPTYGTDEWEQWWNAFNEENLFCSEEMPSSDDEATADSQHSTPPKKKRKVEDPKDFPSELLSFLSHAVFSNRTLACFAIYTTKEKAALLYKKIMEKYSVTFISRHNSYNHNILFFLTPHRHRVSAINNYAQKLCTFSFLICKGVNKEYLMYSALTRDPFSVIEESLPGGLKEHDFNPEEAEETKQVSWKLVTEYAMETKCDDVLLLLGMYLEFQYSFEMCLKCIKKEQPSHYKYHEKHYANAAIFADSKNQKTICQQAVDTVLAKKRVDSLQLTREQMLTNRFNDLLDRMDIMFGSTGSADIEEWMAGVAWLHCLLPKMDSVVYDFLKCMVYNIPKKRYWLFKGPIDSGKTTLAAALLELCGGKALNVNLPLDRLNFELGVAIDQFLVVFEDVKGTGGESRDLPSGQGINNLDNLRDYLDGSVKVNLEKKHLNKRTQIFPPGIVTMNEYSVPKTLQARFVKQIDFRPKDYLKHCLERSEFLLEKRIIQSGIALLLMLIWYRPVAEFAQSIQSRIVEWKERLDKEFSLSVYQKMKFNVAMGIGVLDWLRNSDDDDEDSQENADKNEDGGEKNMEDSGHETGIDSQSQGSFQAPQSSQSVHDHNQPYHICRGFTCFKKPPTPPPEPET
# Sequence of Cytochrome P450 3A4 (P08684 whole entry): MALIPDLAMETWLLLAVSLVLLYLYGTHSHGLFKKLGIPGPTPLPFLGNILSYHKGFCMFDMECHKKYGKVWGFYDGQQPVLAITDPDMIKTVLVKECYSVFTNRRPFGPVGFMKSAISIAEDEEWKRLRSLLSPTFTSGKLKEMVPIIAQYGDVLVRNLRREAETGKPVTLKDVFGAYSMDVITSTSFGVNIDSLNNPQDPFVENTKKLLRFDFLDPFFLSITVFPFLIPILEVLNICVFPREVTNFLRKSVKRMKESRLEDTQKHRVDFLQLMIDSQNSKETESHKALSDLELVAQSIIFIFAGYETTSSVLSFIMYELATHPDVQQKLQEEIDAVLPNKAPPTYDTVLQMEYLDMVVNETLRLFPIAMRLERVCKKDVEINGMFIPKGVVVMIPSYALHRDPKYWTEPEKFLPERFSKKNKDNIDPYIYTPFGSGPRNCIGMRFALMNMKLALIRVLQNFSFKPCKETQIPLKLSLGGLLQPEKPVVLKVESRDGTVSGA
compound,measurement,setting,value
COc1ccc(NC(=O)C2C3CCC(O3)C2C(=O)O)c(OC)c1 (stereo unspecified),IC50,[1],4.95 µM (active)
same,IC50,[2],4.79 µM (active)
Cc1nc(-c2ccc(O)c(O)c2)cs1,IC50,[3],25.1 µM (active)
same,EC50,[4],36.6 µM (active)
same,IC50,[5],1.3 µM (active)
same,IC50,[6],> 59.6 µM (not active)
same,EC50,[7],21.3 µM (active)
same,IC50,[8],6.46 µM (active)
same,IC50,[9],10.2 µM (active)
same,IC50,[10],87.3 µM (not active)
C=CCOCC/C=C1/c2ccccc2C(OC)C1C (stereo unspecified),AC50,[11],3.16 µM (inconclusive)
same,AC50,[12],3.16 µM (inconclusive)
O=C1NCN(c2ccccc2)C12CCN(C[C@H]1COc3ccccc3O1)CC2,AC50,[13],31.6 µM (inconclusive)
same,AC50,[14],20 µM (inconclusive)
same,AC50,[15],15.8 µM (inconclusive)
Cc1cccc(C)c1OCC(O)CNC(C)(C)C (stereo unspecified),EC50,[16],17.9 µM (not active)
same,EC50,[17],> 35.4 µM (not active)
same,EC50,[18],> 35.4 µM (not active)
same,AC50,[19],8.91 µM (inconclusive)
Clc1ccccc1-c1nnn(Cc2ccc(-c3nnn[nH]3)cc2)n1,IC50,[20],> 43.8 µM (not active)
same,IC50,[21],> 43.8 µM (not active)
same,EC50,[22],4.37 µM (active)
COc1ccc(-n2nc3ccc(NS(C)(=O)=O)cc3n2)cc1Cl,EC50,[23],> 35.4 µM (not active)
same,IC50,[24],> 35.4 µM (not active)
same,EC50,[25],> 35.4 µM (not active)
O=C(Nc1nc(-c2ccc(Cl)cc2)cs1)c1ccc(Cl)cc1,CC50,[26],> 40 µM (active)
